{"source": "patent US20170261494A1", "about": "“Disposable Single Cell Array for Personalized Diagnostics” (Northeastern University, priority 2016, published 2017)", "key": {"[1]": {"test_system": "HCT-116, HCT-116-siRNA-topo1 and HCT-116-siRNA-topo2 cells", "experiment": "Single-cell array immunoblotting for topo1, topo2 and γH2AX in halo and nucleus", "type": "cell-based", "details": "alkaline solution, primary antibodies to topo1, topo2, γH2AX, fluorescent secondary antibodies", "description": "(§1) Identification of topoisomerase complexes with DNA and histones at single-cell level can provide mechanistic confirmation on drug- or radiation-DNA interaction. Three colorectal cancer cell lines, HCT-116 (normal topo1/topo2 expression), HCT-116-siRNA-topo1 (low topo1 expression) and HCT-116-siRNA-topo2 (low topo2 expression), are treated with two drugs (one targets topo1 and the other targets topo2), followed by immunoblotting with the array of invention. First, cells are treated with CPT-11 (topo1 drug), and processed for use with the invention using SYBR SAFE dye to reflect the extent of DNA damage. […] In a second experiment, CPT-11 treated cells are subjected to an alkaline solution to allow damaged DNA diffusion (without fluorescence staining), and then incubated with three primary antibodies (topo1, topo2 and γH2AX) for 10 min. After washing to remove excess antibodies, three fluorescent secondary antibodies against topo1, topo2 and γ-H2AX are added. After washing away excess antibodies, the three proteins are detected with fluorescence imaging. […] Parallel studies with VP-16, which targets topo2 enzyme is performed. […] Similar experiments are performed to test X-ray irradiated cells. The results are compared to provide information on drug actions."}, "A172 cells": {"test_system": "A172 cells", "experiment": "Paper-based single-cell array halo assay of DNA damage (NDF)", "design": "species or system human", "details": "drug concentration 50 μM (0 at 0 μM); FIG. 6E/6F", "protocol": "After incubating cells on the paper for 30 min, unattached cells were rinsed away with PBS, followed by addition of 1.5 ml 1% low melting point (LGT)-agarose on paper. The substrate was kept at room temperature for 10 min to allow gel solidification. […] After removing unbound dye, cells were imaged using an Olympus IX81 fluorescent microscope and the acquired images were analyzed with in-house image analysis software to quantify DNA damage. […]\nAn in-house MATLAB image processing software was developed for quantifying DNA damage. […] The eccentricity of each cell object was measured on a scale of 0 to 1, where a score of 0 corresponded to a perfectly circular object and a score of 1 corresponded to a line. […] DNA damage measurements were calculated based on the halos and nuclei labeled for each cell. […]"}, "fibroblast cells": {"test_system": "fibroblast cells", "experiment": "Paper-based single-cell array halo assay of DNA damage (NDF)", "details": "drug concentration 50 μM (0 at 0 μM); FIG. 6E/6F", "description": "(§2) Fibroblast cells, human glioblastoma cells (A172) and breast cancer cells (MCF7) were cultured in standard conditions (5% CO2 in air at 37° C.) in RPMI-1640 medium supplemented with 10% (v/v) fetal bovine serum and 1% (v/v) penicillin/streptomycin. For obtaining individual cells, cells were trypsinized.\n(§3) After exposure to anticancer treatment (radiation or chemotherapy drug), cells were seeded on the cell array precursor at a density of 1×10^6 cells/ml, forming ordered single-cell arrays (FIG. 1A). The quality of single cell arrays was primarily determined by surface roughness of the substrate (FIGS. 3E-H). As the paper surface became smoother, more cells were attached, and the array became more ordered. The attachment probability was derived as the ratio between adsorbed cells and the number of micro-patches. The probability of single cell array increased as the number of layers increased from 25±3.1%, 70±3.5%, to 87±6.4% for 1, 3 and 5 layers of ink, respectively. Five layers of ink provided a high quality substrate for single cell array formation, making this method ideal for paper-based single-cell halo assay.\n(§4) After incubating cells on the paper for 30 min, unattached cells were rinsed away with PBS, followed by addition of 1.5 ml 1% low melting point (LGT)-agarose on paper. The substrate was kept at room temperature for 10 min to allow gel solidification. Then, cells on the paper were immersed in 0.3 M NaOH for 30 min at room temperature, and stained with diluted (×10000) SYBR green I solution for 15 min. After removing unbound dye, cells were imaged using an Olympus IX81 fluorescent microscope and the acquired images were analyzed with in-house image analysis software to quantify DNA damage. Each data point was averaged from at least 50 individual cells.\n(§5) An in-house MATLAB image processing software was developed for quantifying DNA damage. In order to isolate individual cells, images were thresholded using Otsu's method into 4 levels. The first level was considered background; the second and third levels were combined to label halo; and the fourth level was used to label the nucleus. All non-background levels were combined to form a binary image of a cell. The eccentricity of each cell object was measured on a scale of 0 to 1, where a score of 0 corresponded to a perfectly circular object and a score of 1 corresponded to a line. Cell objects with an eccentricity>0.5 were removed from the image on the assumption that they contain overlapping cells (due to deposition of un-patterned cells). FIGS. 4A-F show the process of automatic analysis of the single-cell array using MATLAB software. The original image was transferred from a color image to a grayscale image (FIG. 4A). […] DNA damage measurements were calculated based on the halos and nuclei labeled for each cell. […]"}, "MCF7 cells": {"test_system": "MCF7 cells", "experiment": "Paper-based single-cell array halo assay of DNA damage (NDF)", "details": "drug concentration 50 μM (0 at 0 μM); FIG. 6E/6F", "description": "as §2, §3, §4, §5"}, "[2]": {"test_system": "HCT-116, HCT-116-siRNA-topo1 and HCT-116-siRNA-topo2 cells", "experiment": "Single-cell array halo assay in colorectal cancer cell lines with normal or low topo1/topo2 expression", "type": "cell-based", "details": "SYBR SAFE dye; compared among HCT-116, HCT-116-siRNA-topo1 and HCT-116-siRNA-topo2", "description": "as §1"}}, "note": "Where a name gives a salt, the structure may show the parent alone."}
{"smiles": "COc1cc([C@@H]2c3cc4c(cc3[C@@H](O[C@@H]3O[C@@H]5CO[C@@H](C)O[C@H]5[C@H](O)[C@H]3O)[C@H]3COC(=O)[C@H]23)OCO4)cc(OC)c1O", "note": "[VP-16]", "values": [{"measurement": "Protein found in halos (topoisomerase trapped in damaged DNA)", "setting": "[1]", "result": "Only topo2 enzymes are trapped in damaged DNAs and diffused in halos"}]}
{"smiles": "COc1cccc2c1C(=O)c1c(O)c3c(c(O)c1C2=O)C[C@@](O)(C(=O)CO)C[C@@H]3O[C@H]1C[C@H](N)[C@H](O)[C@H](C)O1", "note": "[doxorubicin, doxorubicin hydrochloride]", "values": [{"measurement": "NDF of A172 cells", "setting": "A172 cells", "result": 3.91}, {"measurement": "NDF of fibroblast cells", "setting": "fibroblast cells", "result": 4.63}, {"measurement": "NDF of MCF7 cells", "setting": "MCF7 cells", "result": 3.95}]}
{"smiles": "CCc1c2c(nc3ccc(OC(=O)N4CCC(N5CCCCC5)CC4)cc13)-c1cc3c(c(=O)n1C2)COC(=O)[C@]3(O)CC", "note": "[irinotecan, irinotecan hydrochloride]", "values": [{"measurement": "Halo size (extent of DNA damage)", "setting": "[2]", "result": "smallest in HCT-116-siRNA-topo1 cells"}, {"measurement": "Protein found in halos (topoisomerase trapped in damaged DNA)", "setting": "[1]", "result": "Only topo1 is found in halos"}, {"measurement": "NDF of fibroblast cells", "setting": "fibroblast cells", "result": 4.34}, {"measurement": "NDF of MCF7 cells", "setting": "MCF7 cells", "result": 4.05}]}
